Square brackets hold non-standard residues; d marks the D form. Peptide text beside a SMILES is read from it. Cya = N[C@@H](CS(=O)(=O)O)C(=O)O
Tests used:
Assay type in all cases: in vivo, human
[1] = system: study eye of subjects with intermediate non-exudative AMD; test: Best corrected visual acuity (BCVA, letters read) in Dry AMD study
Procedure: The subjects in Groups 1 and 2 received the following treatments: Thus, subjects in Group 1 received an initial sham injection in the study eye followed by a single 1 mg dose of risuteganib in the study eye. The subjects in Group 2 received a total of two (2) doses of risuteganib (1 mg per dose) in the study eye. Numerous study assessments were conducted at various time points throughout the study. Included among these study assessments were; refractive eye examinations, determinations of BCVA AND low-luminance BCVA, Lanthony D-15 color vision test, measurement of intraocular pressure (IOP), Indirect ophthalmoscopy/dilated fundus examinations and spectral-domain optical coherence tomography (SD-OCT). Also, blood and saliva samples were obtained from each subject for genetic analysis. The above-listed study assessments were performed at the time points indicated in Table 1, below: For this study, a primary efficacy endpoint was deemed to be the percentage of population with an improvement in BCVA of at least 8 letters (1.5 lines) BCVA.

[2] = system: study eye of subjects with intermediate non-exudative AMD; test: Microperimetry (mean retinal sensitivity, number of loci summed)
Source text: Table 9, below, summarizes number of loci with reduced retinal sensitivity summed across assessments using a 20-dB threshold, an 11-dB threshold, and by measuring absolute scotoma.

[3] = system: study eye of subjects with intermediate non-exudative AMD; test: as above; remark: listed apart in the source
[4] = Week 24, Group 2 (1 mg IVT day 1 + wk 16), subset gain ≥8 letters at primary endpoint week, n = 12
[5] = Week 28, Group 1 crossover (sham day 1, 1 mg IVT wk 16), subset gain ≥8 letters at any week, n = 3
[6] = Week 28, Group 1 crossover (sham day 1, 1 mg IVT wk 16), subset gain ≥8 letters at primary endpoint week, n = 2
[7] = Week 28, Group 2 (1 mg IVT day 1 + wk 16), n = 25
[8] = Week 28, Group 2 (1 mg IVT day 1 + wk 16), subset gain ≥8 letters at any week, n = 14
[9] = Week 28, Group 2 (1 mg IVT day 1 + wk 16), subset gain ≥8 letters at primary endpoint week, n = 12
[10] = Week 28 vs baseline, Group 2 (1 mg IVT day 1 + wk 16), n = 25
[11] = Week 32, Group 1 crossover (sham day 1, 1 mg IVT wk 16), subset gain ≥8 letters at any week, n = 3
[12] = Week 32, Group 1 crossover (sham day 1, 1 mg IVT wk 16), subset gain ≥8 letters at primary endpoint week, n = 2
[13] = Week 32, Group 2 (1 mg IVT day 1 + wk 16), subset gain ≥8 letters at any week, n = 14
[14] = Week 32, Group 2 (1 mg IVT day 1 + wk 16), subset gain ≥8 letters at primary endpoint week, n = 12
[15] = risuteganib eyes with geographic atrophy in foveal center at baseline (n = 2)
[16] = risuteganib eyes with no geographic atrophy in foveal center at baseline (n = 23)
[17] = Week 12 change, Group 2 (1 mg IVT day 1 + wk 16)
[18] = Week 32, Group 2 (1 mg IVT day 1 + wk 16)
[19] = Week 32 change, Group 1 crossover (sham day 1, 1 mg IVT wk 16)
[20] = Week 32 change, Group 2 (1 mg IVT day 1 + wk 16)
[21] = Week 12, Group 2 (1 mg IVT day 1 + wk 16)
[22] = Week 32, Group 1 crossover (sham day 1, 1 mg IVT wk 16)

With `C[C@@H](O)[C@H](NC(=O)[C@H](CS(=O)(=O)O)NC(=O)CNC(=O)[C@H](CCCNC(=N)N)NC(=O)CN)C(=O)N1CCC[C@H]1C(=O)O` [risuteganib, Glycyl-L-arginylglycyl-3-sulfo-L-alanyl-L-threonyl-L-proline] (H-GRG[Cya]TP-OH) the “BCVA letters read, mean” value [1, 4] was 74.3 letters read, the “BCVA letters read, median” value [1, 4] was 75.5 letters read and the “BCVA change in letters read, mean” value [1, 5] was 8.0 letters read. For the same compound, the “BCVA change in letters read, median” value [1, 5] was 9.0 letters read, the “BCVA letters read, mean” value [1, 5] was 77.7 letters read and the “BCVA letters read, median” value [1, 5] was 74.0 letters read. The “BCVA change in letters read, mean” value [1, 6] was 9.5 letters read, the “BCVA change in letters read, median” value [1, 6] was 9.5 letters read and the “BCVA letters read, mean” value [1, 6] was 79.5 letters read. For the same compound, the “BCVA letters read, median” value [1, 6] was 79.5 letters read, the “BCVA letters read at primary endpoint week, mean” value [1, 7] was 70.5 letters read and the “BCVA letters read at primary endpoint week, median” value [1, 7] was 71.0 letters read. The “BCVA change in letters read, mean” value [1, 8] was 11.4 letters read, the “BCVA change in letters read, median” value [1, 8] was 11.5 letters read and the “BCVA letters read, mean” value [1, 8] was 73.9 letters read. The “BCVA letters read, median” value [1, 8] was 74.5 letters read, the “BCVA change in letters read, mean” value [1, 9] was 12.8 letters read and the “BCVA change in letters read, median” value [1, 9] was 12.0 letters read. For the same compound, the “BCVA letters read, mean” value [1, 9] was 75.7 letters read, the “BCVA letters read, median” value [1, 9] was 75.5 letters read and the “BCVA change in letters read at primary endpoint week, mean” value [1, 10] was 6.1 letters read. The “BCVA change in letters read at primary endpoint week, median” value [1, 10] was 6.0 letters read, the “BCVA change in letters read, mean” value [1, 11] was 6.3 letters read and the “BCVA change in letters read, median” value [1, 11] was 6.0 letters read. For the same compound, the “BCVA letters read, mean” value [1, 11] was 76.0 letters read, the “BCVA letters read, median” value [1, 11] was 75.0 letters read and the “BCVA change in letters read, mean” value [1, 12] was 6.5 letters read. For the same compound, the “BCVA change in letters read, median” value [1, 12] was 6.5 letters read, the “BCVA letters read, mean” value [1, 12] was 76.5 letters read and the “BCVA letters read, median” value [1, 12] was 76.5 letters read. The “BCVA change in letters read, mean” value [1, 13] was 8.2 letters read, the “BCVA change in letters read, median” value [1, 13] was 9.5 letters read and the “BCVA letters read, mean” value [1, 13] was 70.7 letters read. For the same compound, the “BCVA letters read, median” value [1, 13] was 73.0 letters read, the “BCVA change in letters read, mean” value [1, 14] was 9.5 letters read and the “BCVA change in letters read, median” value [1, 14] was 10.5 letters read. The “BCVA letters read, mean” value [1, 14] was 72.4 letters read, the “BCVA letters read, median” value [1, 14] was 74.0 letters read and the “≥10 Letter Improvement in Visual Acuity, %” value [1, 15] was “(50) %”. For the same compound, the “≥15 Letter Improvement in Visual Acuity, %” value [1, 15] was “(0) %”, the “≥10 Letter Improvement in Visual Acuity, %” value [1, 16] was “(30) %” and the “≥15 Letter Improvement in Visual Acuity, %” value [1, 16] was “(22) %”. The “Microperimetry number of loci summed change, median” value [2, 17] was 4.0, the “Microperimetry number of loci summed change, mean” value ([2]; Week 12 change, Group 2 (1 mg IVT day 1 + wk 16), increase = worsening) was 6.1 and the “Microperimetry number of loci summed (reduced sensitivity), mean” value [2, 18] was 80.7. The “Microperimetry number of loci summed change, median” value [2, 19] was −1.0, the “Microperimetry number of loci summed change, median” value [2, 20] was −3.0 and the “Decrease (improvement) in number of summed loci with reduced retinal sensitivity” value ([2]; risuteganib responders at Week 32 (FIG. 7)) was 17.75. For the same compound, the “Microperimetry mean sensitivity, mean” value [3, 21] was 7.52 dB, the “Microperimetry mean sensitivity, median” value [3, 21] was 7.50 dB and the “Microperimetry number of loci summed (reduced sensitivity), mean” value [3, 21] was 84.9. The “Microperimetry number of loci summed (reduced sensitivity), median” value [3, 21] was 86.5, the “Microperimetry mean sensitivity change, median” value [3, 17] was −1.50 dB and the “Microperimetry mean sensitivity, mean” value [3, 22] was 11.44 dB. The “Microperimetry mean sensitivity, median” value [3, 22] was 13.70 dB, the “Microperimetry number of loci summed (reduced sensitivity), mean” value [3, 22] was 67.6 and the “Microperimetry number of loci summed (reduced sensitivity), median” value [3, 22] was 60.0. The “Microperimetry mean sensitivity, mean” value [3, 18] was 8.25 dB, the “Microperimetry mean sensitivity, median” value [3, 18] was 8.50 dB and the “Microperimetry number of loci summed (reduced sensitivity), median” value [3, 18] was 79.5. The “Microperimetry mean sensitivity change, median” value [3, 19] was −0.20 dB, the “Microperimetry number of loci summed change, mean” value [3, 19] was 7.9 and the “Microperimetry mean sensitivity change, median” value [3, 20] was −0.40 dB. For the same compound, the “Microperimetry number of loci summed change, mean” value [3, 20] was 1.0 and the “Increase (improvement) in mean retinal sensitivity” value ([3]; risuteganib responders at Week 32 (FIG. 5)) was 2.2 dB.
